Source: patent publication US9944613B2, “Fumagillol spirocyclic compounds and fused bicyclic compounds and methods of making and using same” (Zafgen, Inc., priority 2015, dated 2018)

Experiments:
[1] = system: rat DIO model (Sprague Dawley rats on high fat diet); test: 11 day rat DIO model, weight loss vs. vehicle; type: in vivo; details: Rattus norvegicus, 264 h, 0.3 mpk sc once a day for 11 days
Excerpt: The objective of this study design is to investigate the efficacy of disclosed compounds in an 11 day rat DIO model used to screen compounds for pharmacologic efficacy on endpoints related to obesity and metabolism. Effects on body weight, food intake, hematology and blood chemistries were the primary readouts of this study design. Male Sprague Dawley rats, approximately 8 weeks of age, were ordered from a certified vendor and housed on irradiated corncob bedding in micro-isolator cages, on a 12-hour light-dark cycle (0700-1900) at 68-74° F. and 30-70% humidity. Rats were fed Research Diets D12451 (45% High Fat) and provided water ad libitum. Rats were received and housed in the facility for at least two or three weeks prior to start of test article administration. On Day −4 or −3, rats were randomized into study groups based on body weight and body weights were continued to be recorded daily for the duration of the study. Daily food intake was assessed starting on Study Day −2 by weighing the hopper including the food to avoid loss of food in transfer.
Compounds were formulated into a 100% DMSO stock (at 9 mg/mL) prior to the start, and further diluted into the target working concentration using the vehicle of 10% DMSO in water. Prior to test article administration, starting on Day −3 a dosing acclimation occured with all animals receiving a subcutaneous injection of vehicle (10% DMSO) only for 3 days. Starting on Day 1, test compounds or vehicle were administered based on individual body weight, subcutaneously, once a day for 11 days. All animals were sacrificed on Day 11, approximately 2 hours following the final dosing on Day 11. After sacrifice, whole blood was collected and analyzed for hematology and blood chemistry parameters.
Compounds were tested for weight loss vs. vehicle at 0.3 and 1.0 mpk sc (mg per kg animal weight delivered subcutaneously), and the results are shown in Table 2 below.

[2] = system: Diet Induced Obese (DIO) C57BL/6 mice; test: 10 day DIO mouse model, weight loss vs. vehicle; type: in vivo; details: 240 h, 0.3 mpk sc once a day for 10 days
[3] = system: human fibrosarcoma cell line HT-1080; test: HT-1080 cell growth inhibition (CellTiter-Glo, 72 hours); type: cell-based; details: HT-1080 cells, 72 hours incubation
Experimental: The human fibrosarcoma cell line HT-1080 were grown to almost complete confluence in T75 tissue culture flasks in preparation for the experiment. The cells were trypsinised and re-suspended in complete medium using DMEM plus 9% FBS including penicillin/streptomycin supplements. 500 cells in a total volume of 25 μl were seeded into black walled 384 well plates and returned to a CO2 incubator over-night. Compounds and standards were prepared at 333.3× actual test concentration in neat DMSO. 10 point dose response curves of test compounds were generated by 1:3 serial dilutions, 2 μl of DMSO stock was transferred to 109 μl complete medium. This was further diluted 1:6 in complete medium, with 5 μl of the resulting solution added to the incubated 384 well plate. […] For experimental blanks at the start of the experiment, CellTiter-Glo was added to a satellite plate of cells (identical to the experimental plate), when adding compounds on Day 1. The average of these wells is used as the blanks in the calculation template. […] Luminescence per well was determined using an EnVision 2104 Multilabel Reader (PerkinElmer) or other suitable reader. The compound blank value recorded on Day 1 is subtracted from all other data. […] The EC50 values are determined from a sigmoidal 4 parameter curve fit using XLfit in conjunction with Activity Base (IDBS; Guildford, Surrey, UK). […]

[4] = system: pregnant Sprague Dawley rats (embryo/fetal development); test: Rat embryofetal development study; type: in vivo; details: 6 mpk subcutaneously once every three days, Gestation Days 6-18, pregnant rats
Excerpt: Study Summary Rat Embryofetal:
The objective of this study design was to evaluate the potential effects of disclosed compounds on embryo/fetal development when given subcutaneously to pregnant rats once every three days during the critical period of organogenesis (Gestation Days 6-18). Female, Sprague Dawley rats, approximately 10 weeks of age, time bred, were ordered from a certified vendor and housed individually housed in stainless steel cages suspended over flush pans, on a 12-hour light-dark cycle (0700-1900) at 20-26° C. and 30-70% humidity. Rats were fed a standard rodent chow and provided water ad libitum. Rats were received and housed in the facility for a period of approximately 1 to 2 days.
Compounds were formulated using 100% DMSO mixed in Sterile Water for Injection, resulting in 2% DMSO solution in water. If necessary, due to limited solubility of a test article, a higher percentage of DMSO solution in water was used. Groups of 8 mated and presumed pregnant female rats were given subcutaneous doses of vehicle or test article, once every three days, beginning on Gestation Day 6 and ending on Gestation Day 18 (Days 6, 9, 12, 15, and 18), maintained two more days, and then euthanized and necropsied on Gestation Day 20. Body weights was recorded for all animals on Gestation Days 5 (purpose of randomization), 6, 9, 12, 15, 18, and 20 (scheduled euthanasia). Food consumption by weight was recorded on Gestation Days 6, 9, 12, 15, 18, and 20 (scheduled termination).
At necropsy, the dams were examined visually for external abnormalities including palpable masses. The abdominal, thoracic, and cranial cavities and their contents were examined for abnormalities and findings will be recorded. The reproductive tract were examined to record the number of ovarian corpora lutea, the number and location of uterine implantation sites noting the position of the cervix, and the number of early resorptions, late resorptions, live fetuses, and dead fetuses. For dead fetuses and late resorptions, crown-to-rump length and weight were recorded, if possible, and the fetus was discarded. For viable fetuses, weight, sex, and grossly visible external abnormalities were recorded.

## CO[C@@H]1[C@H](OC(=O)/C=C/c2ccc(OCCN(C)C)cc2)CC[C@]2(CO2)[C@H]1[C@@]1(C)O[C@@H]1CC=C(C)C [compound A, [(3R,6R,7S,8S)-7-methoxy-8-[(2R,3R)-2-methyl-3-(3-methylbut-2-enyl)oxiran-2-yl]-2-oxaspiro[2.5]octan-6-yl] (E)-3-[4-[2-(dimethylamino)ethoxy]phenyl]prop-2-enoate, reference compound]
[1]
  inhibition in vivo at 0.3 mg/kg: 20%
[2]
  inhibition in vivo at 0.3 mg/kg: 18%
[3]
  EC50: 0.5 to 1 nM
[4]
  Rat Embryofetal @6 mpk: Positive
